# In patent publication US20230392180A1, “MICROSCOPIC IMAGING AND ANALYSES OF EPIGENETIC LANDSCAPE” (Sanford Burnham Prebys Medical Discovery Institute, priority 2020, published 2023):
# Where a name gives a salt, the structure may show the parent alone.
# Key:
# primary human fNPCs = test: MIEL-EpiTox of ToxCast Phase I/II+elk library compounds; details: 10 μM, 72 h, H3K27ac and H3K27me3
# Procedure: Cells were treated with test compounds, then fixed and immunolabeled for epigenetic marks. The pattern of marks within each nucleus was analyzed to create multivariate signatures or “fingerprints” of each perturbation. Since the technique analyzes texture features rather than intensities and morphologies, culturing and immunostaining artifacts are reduced. MIEL is related to “cell painting”, in which multivariate analysis of multiplexed biomarkers was used to classify protein localization, cell subpopulations, and drug mechanisms of action. The multiparametric signatures of the cells (centroids) were plotted in 2D via multidimensional scaling (MDS), and support vector machine (SVM) classification was used to establish borders to divide the epigenetic signatures into distinct classes. MIEL was employed to probe the presence of epitoxic compounds in the EPA ToxCast Phase I/II+elk library and examined the effects of 352 compounds on primary human fNPCs (Thermo-Fisher, #A15654). Cells were incubated with 10 μM compound for 72 h, labeled with fluorescence-tagged antibodies to H3K27ac and H3K27me3, and imaged on a Vala Sciences IC200 cytometer. Features were derived using Acapella (Perkin Elmer) high-content imaging and analysis software. SVM classification was conducted as previously described. […] The same criteria were applied to determine toxicity.
# [1] = cited from earlier work
# [2] = single report; cited from earlier work
# GBM2 cells = test: Sensitization to radiation or TMZ; format: cell-based, human; details: 200 uM, 4 days
# Procedure: Sensitization to radiation or TMZ: Cells were plated at 1500 cells/well in 384-well optical bottom assay plates (PerkinElmer). Two sets of the experiment were prepared; DMSO (0.1%) was used for negative controls at 48 DMSO replicates per plate; 3 replicates (wells) were treated per compound. Cells in both sets were pre-treated with epigenetic compounds for 2 days prior to cytotoxic treatment. Cytotoxic treatment, either 200 uM temozolomide (TMZ, Sigma) or 1 Gy x-ray radiation (RS2000; RAD Source) was carried out for 4 days on single set (‘treatment set’); for TMZ treatment, DMSO control was given to the second set. A single radiation dose was given at day 3; TMZ was given twice at days 3 and 5 of the experiment. Cells were fixed, stained with DAPI, and scored using an automated microscope (Celigo; Nexcelom Bioscience). For each compound, fold change in cell number was calculated for both the “treatment set” (Drug+Cytotox) and the “control set” (Drug), compared to DMSO-treated wells in the control set. The effect of radiation or TMZ alone was calculated as fold reduction of DMSO-treated wells in the treatment set compared to DMSO-treated wells in the control set (Cytotox). The coefficient of drug interaction (CDI) was calculated as […]. […]
# [3] = Exposure estimated from publicly available information; details: women, estimating 50-75 kg body weight
smiles,measurement,setting,value
"CCCCOC(=O)COc1ccc(Cl)cc1Cl [2,4-D 1-butyl ester]","MIEL-EpiTox class (epitoxic, cytotoxic, inert)",primary human fNPCs,epitoxic hits producing the largest epigenetic perturbations
Cc1sc2c(c1C)C(c1ccc(Cl)cc1)=N[C@@H](CC(=O)Nc1ccc(O)cc1)c1nnc(C)n1-2 [OTX015],toxicity in clinical trials,[1]; doses achieving biologically active levels,low toxicity
same,clinical benefits,[1]; in vivo,no detectable clinical benefits
same,interaction with TMZ,[2],synergy
"Cn1nnc2c(C(N)=O)ncn2c1=O [TMZ, temozolomide]",reduction in cell numbers,GBM2 cells,50%
C[C@@H]1C[C@H]2[C@@H]3CCC4=CC(=O)C=C[C@]4(C)[C@@]3(F)[C@@H](O)C[C@]2(C)[C@@]1(O)C(=O)COS(=O)(=O)O [dexamethasone sulfate],estimated concentrations reached following repeated administration,[3],~10 µM
